Measured values published in US9657351B2, “MRNA-based gene expression for personalizing patient cancer therapy with an MDM2 antagonist” (Hoffmann-La Roche Inc., priority 2013, dated 2017).
Entries after “also recorded” stand apart in the source; their conditions may differ.

Legend:
C-33 A = experiment: COMPOUND A In Vitro Assay; assay type: cell-based; conditions: Homo sapiens, Cervix, TP53 Mutant
Description: (§1) To generate an MDM2 antagonist therapy predictive signature, the response of MDM2 antagonist therapy in vitro with gene expression profiling (FIG. 1) is combined. A bank of 287 human cancer cell lines, collectively termed the Cell Lines for Oncology/Chugai ACcumulative Tumour EncycLopedia (CELLO/CACTEL), representing a broad array of diverse human cancer tumor types are subject to evaluation using several high-throughput genomic technology platforms. The mutational status of nucleic acids from each cell line is determined by exome sequencing. Messenger RNA (mRNA) expression levels at baseline, prior to MDM2 antagonist therapy, are obtained via RNA sequencing. MDM2 antagonist therapy COMPOUND A, sometimes referred to herein as RG7112, responses are obtained by assays known to those skilled in the art such as RNA sequencing and microarray measurement using Gene Chip Human Genome U133 Plus 2.0 Array. The MDM2 therapy responses are obtained by high throughout screening assays. Depending on their responses to COMPOUND A these cell lines are classified as either sensitive, defined as IC50<=1, or resistant, defined as IC50>=10.
(§2) 281 cells are treated with MDM2 antagonists and the IC50 (therapy response) is generated. The cell lines span a broad range of tumor cell types of derivation.

C32 = experiment: COMPOUND A In Vitro Assay; assay type: cell-based; conditions: Homo sapiens, Skin, TP53 Wild type
Description: as §1, §2

LS 174T = experiment: COMPOUND A In Vitro Assay; assay type: cell-based; conditions: Homo sapiens, LS174T
Description: as §1, §2

MC/CAR = experiment: COMPOUND A In Vitro Assay; assay type: cell-based; conditions: Homo sapiens
Description: as §1, §2

NCI-H2009 = experiment: COMPOUND A In Vitro Assay; assay type: cell-based; conditions: Homo sapiens, Lung, TP53 Mutant
Description: as §1, §2

NCI-H522 = experiment: COMPOUND A In Vitro Assay; assay type: cell-based; conditions: Homo sapiens, Lung, TP53 Mutant
Description: as §1, §2

Ramos = experiment: COMPOUND A In Vitro Assay; assay type: cell-based; conditions: Homo sapiens, Lymphocyte B, TP53 Wild type
Description: as §1, §2

[1] = test system: CELLO/CACTEL human cancer cell lines; experiment: COMPOUND A In Vitro Assay, whole CELLO/CACTEL panel (IC50 vs mRNA signature score, TP53 status, tumor type); assay type: cell-based; conditions: for % Res: resistant IC50>=10; for % Sen: sensitive IC50<=1
Description: as §1, §2
To examine the specific prediction power of the mRNA signature score across the studied tumor types, and to make sure the prediction from the signature score is not confounded by tumor lineage, the signature score within each available tumor type in CELLO (Table 7, 7a) is examined.
The genes are ranked via their fold changes of responder cell lines to non-responder cell lines. Positive genes are defined as those with fold changes higher than 1; whereas negative genes are defined as those with fold changes less than 1. A multivariate logistic regression classifier is then built through a upward model selection procedure to maximize area under the receiver operating characteristic (ROC) curve with 10-fold cross-validation. The mode selection is implemented procedure through R package bestglm.

[2] = test system: patients with relapsed/refractory leukemia (AML); experiment: NO21279 Phase 1 leukemia trial, clinical response (CR, MLFS, HI, PD); assay type: in vivo, human
Procedure: The performance of the MDM2 antagonist predictive mRNA response signature is tested in the clinical setting with specimens from the NO21279 leukemia trial (FIG. 1). 28 AML patients treated at the MTD are enrolled and completed pretreatment and C1D10 (cycle 1, day 10) sampling. […] The clinical endpoint in NO21279 was divided into 4 categories: Complete Response (CR), Morphologic Leukemia-Free State (MLFS), Hematologic Improvement (HI), and Progressive Disease (PD). Blood leukemia samples and bone marrow biopsy samples were collected at baseline screening, after a single dose (cycle 1 day 2, C1D2) and on last day of dosing (cycle 1, day 10, C1D10) and isolated via MACS® separation^11. The early pharmacodynamic effect of MDM2 antagonism in blood leukemia samples was assessed by measuring MDM2 RT PCR change between baseline and C1D10. Global gene expression profiles were generated for the peripheral blood leukemia cells and bone marrow biopsy samples obtained at baseline, C1D2 and C1D10.
(§3) In the NO21279 Phase 1 clinical trial, patients with relapsed/refractory leukemia are treated with ascending doses of COMPOUND A. Specimens from subset of patients treated at the MTD (1500 mg BID×10 days) are evaluated as a part of the current gene expression study. Leukemia samples are collected at baseline, cycle 1 day 2 (C1D2) and cycle 1, day 10 (C1D10) and isolated via MACs separation.
as §3, with “RG7112.” for “COMPOUND A.”
Clinical responses are evaluated and are divided into 4 categories: Complete Response (CR), Morphologic Leukemia-Free State (MLFS), Hematologic Improvement (HI), and Progressive Disease (PD). […] In addition to assessments of baseline samples, treatment samples are also evaluated (Cycle 1, Day 10).

P53 = conditions: NP22890; at C1D8; as previously reported; cited from earlier work
[3] = Adenocarcinoma cell lines, N 21
[4] = Adenocarcinoma, colorectal cell lines, N 7
[5] = Bone marrow cell lines, Number 5
[6] = Breast, mammary gland cell lines, Number 20
[7] = Carcinoma, gastric cell lines, N 5
[8] = Carcinoma, primary ductal cell lines, N 5
[9] = Carcinoma, squamous cell cell lines, N 12
[10] = Carcinoma, urinary bladder, transitional cell carcinoma (TCC) cell lines, N 7
[11] = Intestine, large, colon cell lines, Number 8
[12] = Leukaemia, acute myeloid cell lines, N 5
[13] = Lymphocyte cell lines, Number 6
[14] = Myeloma, multiple cell lines, N 5
[15] = Neuroblastoma (Glioma, neuroblastoma) cell lines, N 6
[16] = Urinary, bladder cell lines, Number 8
[17] = of 28 AML patients treated at the MTD (1500 mg BID×10 days)

CCOc1cc(C(C)(C)C)ccc1C1=N[C@@](C)(c2ccc(Cl)cc2)[C@@](C)(c2ccc(Cl)cc2)N1C(=O)N1CCN(CCCS(C)(=O)=O)CC1 [COMPOUND A]
IC50 (C-33 A): 18 µM
IC50 (C32): 3000 nM
IC50 (LS 174T; LS 174T cells): 600 nM
IC50 (LS 174T; LS 174T, Intestine, large, colon, TP53 Wild type): 590 nM
IC50 (MC/CAR; MC/CAR cells): 700 nM
IC50 (MC/CAR; MC/CAR, Lymphocyte B, peripheral blood, TP53 Wild type): 690 nM
IC50 (NCI-H2009): 9.9 µM
IC50 (NCI-H522): 22 µM
IC50 (Ramos): 8.8 µM
N (resistant) [1, 3]: 17
N (sensitive) [1, 3]: 4
N (resistant) [1, 4]: 5
N (sensitive) [1, 4]: 2
% Res [1, 5]: 60.0%
% Sen [1, 5]: 40.0%
% Res ([1]; Brain cell lines, Number 10): 50.0%
% Sen ([1]; Brain cell lines, Number 10): 50.0%
% Res [1, 6]: 85.0%
% Sen [1, 6]: 15.0%
N (resistant) ([1]; Carcinoma cell lines, N 8): 6
N (sensitive) ([1]; Carcinoma cell lines, N 8): 2
N (resistant) [1, 7]: 3
N (sensitive) [1, 7]: 2
N (resistant) [1, 8]: 4
N (sensitive) [1, 8]: 1
N (resistant) [1, 9]: 9
N (sensitive) [1, 9]: 3
N (resistant) [1, 10]: 6
N (sensitive) [1, 10]: 1
% Res [1, 11]: 62.5%
% Sen [1, 11]: 37.5%
N (resistant) [1, 12]: 3
N (sensitive) [1, 12]: 2
% Res ([1]; Lung cell lines, Number 41): 85.4%
% Sen ([1]; Lung cell lines, Number 41): 14.6%
% Res [1, 13]: 50.0%
% Sen [1, 13]: 50.0%
N (resistant) [1, 14]: 2
N (sensitive) [1, 14]: 3
N (resistant) [1, 15]: 3
N (sensitive) [1, 15]: 3
% Res ([1]; Ovary cell lines, Number 6): 66.7%
% Sen ([1]; Ovary cell lines, Number 6): 33.3%
% Res ([1]; Pancreas cell lines, Number 9): 100.0%
% Sen ([1]; Pancreas cell lines, Number 9): 0.0%
% Res ([1]; Skin cell lines, Number 6): 66.7%
% Sen ([1]; Skin cell lines, Number 6): 33.3%
% Res ([1]; Stomach cell lines, Number 8): 50.0%
% Sen ([1]; Stomach cell lines, Number 8): 50.0%
% Res [1, 16]: 75.0%
% Sen [1, 16]: 25.0%
Response, number of patients with CR ([2]; all 28 patients, NO21279): 3CR,
Response, number of patients with HI ([2]; all 28 patients, NO21279): 6 HI,
Response, number of patients with MLFS ([2]; all 28 patients, NO21279): 4 MLFS,
Response, number of patients with PD ([2]; all 28 patients, NO21279): 15 PD
Response ([2]; individual AML patients (no. 1-28), NO21279, MTD 1500 mg BID×10 days, listed as RG7112): CR (Complete Response (CR)); also recorded: MLFS (Morphologic Leukemia-Free State (MLFS)); also recorded: HI (Hematologic Improvement (HI)); also recorded: PD (Progressive Disease (PD))
clinical response: number of patients with Complete Response (CR) [2, 17]: 3
clinical response: number of patients with Hematologic Improvement (HI) [2, 17]: 6
clinical response: number of patients with Morphologic Leukemia-Free State (MLFS) [2, 17]: 4
clinical response: number of patients with Progressive Disease (PD) [2, 17]: 15
P53 concentration change from baseline (P53): significantly increase
